Measured values: ChEMBL document CHEMBL1150756, “Isolation of an anti-inflammatory principle from the fruit juice of Ecballium elaterium” (J Nat Prod, 1988)

How the values were obtained:
[1] = Toxicity in po dosed dd mouse; format: organism-based; settings: in vivo
Mus musculus = experiment: Antiinflammatory activity in po dosed dd mouse assessed as inhibition of acetic acid-induced vascular permeability administered 30 mins before acetic acid challenge measured after 20 mins; format: functional

Compound	LD50 [1] [mg/kg]	ED50 (Mus musculus) [mg/kg]
CC(=O)OC(C)(C)/C=C/C(=O)[C@](C)(O)[C@H]1[C@H](O)C[C@@]2(C)[C@@H]3CC=C4[C@@H](C[C@H](O)C(=O)C4(C)C)[C@]3(C)C(=O)C[C@]12C [CUCURBITACIN B]	10.9	–
CC(=O)OC(C)(C)/C=C/C(=O)[C@](C)(O)[C@H]1[C@H](O)C[C@@]2(C)[C@@H]3CC=C4[C@H](C[C@H](O)C(=O)C4(C)C)[C@]3(C)C(=O)C[C@]12C [CUCURBITACIN B]	–	6.1
